Structures can show the parent of a compound that is named as a salt.
System: Acinetobacter baumannii ATCC17961
Experiment: Antimicrobial susceptibility testing: 90% growth inhibitory concentration (IC90) determination
Format: cell-based
Conditions: Acinetobacter baumannii, ATCC17961, 16 h, 90% growth inhibitory concentration, Acinetobacter baumannii ATCC17961, Iso-Sensitest broth, OD 600 nm over 16 h; read-out: ATCC 17961 IC90
Procedure, shortened: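 Growth inhibition derived in log phase from OD600 kinetics (every 20 minutes, 16h, 35±2° C) of ATCC17961 in Iso-Sensitest medium, inoculum ~5×10^5 CFU/ml. Compounds tested as twofold series, 10 points (e.g. 50 to 0.097 μM final); IC90 and IC50 reported.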

In order of rising IC90:
1. COCCn1ncc(-c2ccc(-c3cnc(C(=O)Nc4ccc(C(=O)N5CCN(C(=O)C[N+]6(C)CCCC6)CC5)c(Cl)c4)n3C)c(F)c2F)c1C [Example C14, N-[3-chloro-4-[4-[2-(1-methylpyrrolidin-1-ium-1-yl)acetyl]piperazine-1-carbonyl]phenyl]-5-[2,3-difluoro-4-[1-(2-methoxyethyl)-5-methyl-pyrazol-4-yl]phenyl]-1-methyl-imidazole-2-carboxamide; 2,2,2-trifluoroacetate]  82 nM
2. COCCn1ncc(-c2ccc(-c3cnc(C(=O)Nc4ccc(C(=O)N5CCC(C(=O)N6CC[N+](C)(C)C(CO)C6)CC5)c(Cl)c4)n3C)c(F)c2F)c1C (stereo not shown) [Example D6, N-[3-chloro-4-[4-[3-(hydroxymethyl)-4,4-dimethyl-piperazin-4-ium-1-carbonyl]piperidine-1-carbonyl]phenyl]-5-[2,3-difluoro-4-[1-(2-methoxyethyl)-5-methyl-pyrazol-4-yl]phenyl]-1-methyl-imidazole-2-carboxamide; formate]  85 nM
3. Cc1n[nH]cc1-c1ccc(-c2cnc(C(=O)Nc3ccc(C(=O)N4CCN(C(=O)C[N+]5(C)CCCC5)CC4)c(Cl)c3)n2C)c(F)c1F [Example D15, N-[3-chloro-4-[4-[2-(1-methylpyrrolidin-1-ium-1-yl)acetyl]piperazine-1-carbonyl]phenyl]-5-[2,3-difluoro-4-(3-methyl-1H-pyrazol-4-yl)phenyl]-1-methyl-imidazole-2-carboxamide; formate]  100 nM
4. COCCn1ncc(-c2ccc(-c3cnc(C(=O)Nc4ccc(C(=O)N5CCC(CN6CC[N+](C)(C)CC6=O)CC5)c(Cl)c4)n3C)c(F)c2F)c1C [Example D14, N-[3-chloro-4-[4-[(4,4-dimethyl-2-oxo-piperazin-4-ium-1-yl)methyl]piperidine-1-carbonyl]phenyl]-5-[2,3-difluoro-4-[1-(2-methoxyethyl)-5-methyl-pyrazol-4-yl]phenyl]-1-methyl-imidazole-2-carboxamide; 2,2,2-trifluoroacetate]  110 nM
5. COCCn1cc(-c2ccc(-c3cnc(C(=O)Nc4ccc(C(=O)N5CCN(C(=O)C[N+]6(C)CCC(C(N)=O)C6)CC5)c(Cl)c4)n3C)c(F)c2F)c(C)n1 (stereo not shown) [Example C7, N-[4-[4-[2-(3-carbamoyl-1-methyl-pyrrolidin-1-ium-1-yl)acetyl]piperazine-1-carbonyl]-3-chloro-phenyl]-5-[2,3-difluoro-4-[1-(2-methoxyethyl)-3-methyl-pyrazol-4-yl]phenyl]-1-methyl-imidazole-2-carboxamide; formate]  140 nM
6. COCCn1cc(-c2ccc(-c3cnc(C(=O)Nc4ccc(C(=O)N5CCN(C(=O)[C@@H]6C[C@@H](O)C[N+]6(C)C)CC5)c(Cl)c4)n3C)c(F)c2F)c(C)n1 [Example D7, N-[3-chloro-4-[4-[(2S,4R)-4-hydroxy-1,1-dimethyl-pyrrolidin-1-ium-2-carbonyl]piperazine-1-carbonyl]phenyl]-5-[2,3-difluoro-4-[1-(2-methoxyethyl)-3-methyl-pyrazol-4-yl]phenyl]-1-methyl-imidazole-2-carboxamide; formate]  150 nM
7. Cc1n[nH]cc1-c1ccc(-c2cnc(C(=O)Nc3ccc(C(=O)N4CCN(C(=O)C5CC[N+](C)(C)CC5)CC4)c(Cl)c3)n2C)c(F)c1F [Example D16, N-[3-chloro-4-[4-(1,1-dimethylpiperidin-1-ium-4-carbonyl)piperazine-1-carbonyl]phenyl]-5-[2,3-difluoro-4-(3-methyl-1H-pyrazol-4-yl)phenyl]-1-methyl-imidazole-2-carboxamide; formate]  150 nM
8. COCCCn1ncc(-c2ccc(-c3cnc(C(=O)Nc4ccc(C(=O)N5CCN(C(=O)[C@@H]6C[C@@H](O)C[N+]6(C)C)CC5)c(Cl)c4)n3C)c(F)c2F)c1C [Example D12, N-[3-chloro-4-[4-[(2S,4R)-4-hydroxy-1,1-dimethyl-pyrrolidin-1-ium-2-carbonyl]piperazine-1-carbonyl]phenyl]-5-[2,3-difluoro-4-[1-(3-methoxypropyl)-5-methyl-pyrazol-4-yl]phenyl]-1-methyl-imidazole-2-carboxamide; formate]  200 nM
9. COCCn1cc(-c2ccc(-c3cnc(C(=O)Nc4ccc(C(=O)N5CCN(C(=O)C6CC[N+](C)(C)CC6O)CC5)c(Cl)c4)n3C)c(F)c2F)c(C)n1 (stereo not shown) [Example D2, N-[3-chloro-4-[4-(3-hydroxy-1,1-dimethyl-piperidin-1-ium-4-carbonyl)piperazine-1-carbonyl]phenyl]-5-[2,3-difluoro-4-[1-(2-methoxyethyl)-3-methyl-pyrazol-4-yl]phenyl]-1-methyl-imidazole-2-carboxamide; formate]  210 nM
10. COCCn1cc(-c2ccc(-c3cnc(C(=O)Nc4ccc(C(=O)N5CCN(C(=O)[C@@H]6C[C@H](O)C[N+]6(C)C)CC5)c(Cl)c4)n3C)c(F)c2F)c(C)n1 [Example D10, N-[3-chloro-4-[4-[(2S,4S)-4-hydroxy-1,1-dimethyl-pyrrolidin-1-ium-2-carbonyl]piperazine-1-carbonyl]phenyl]-5-[2,3-difluoro-4-[1-(2-methoxyethyl)-3-methyl-pyrazol-4-yl]phenyl]-1-methyl-imidazole-2-carboxamide; formate]  210 nM
11. COCCCn1cc(-c2ccc(-c3cnc(C(=O)Nc4ccc(C(=O)N5CCN(C(=O)[C@@H]6C[C@@H](O)C[N+]6(C)C)CC5)c(Cl)c4)n3C)c(F)c2F)c(C)n1 [Example D11, N-[3-chloro-4-[4-[(2S,4R)-4-hydroxy-1,1-dimethyl-pyrrolidin-1-ium-2-carbonyl]piperazine-1-carbonyl]phenyl]-5-[2,3-difluoro-4-[1-(3-methoxypropyl)-3-methyl-pyrazol-4-yl]phenyl]-1-methyl-imidazole-2-carboxamide; formate]  270 nM
12. COCCn1cc(-c2ccc(-c3cnc(C(=O)Nc4ccc(C(=O)N5CCN(C(=O)[C@@H]6[C@@H](O)CC[N+]6(C)C)CC5)c(Cl)c4)n3C)c(F)c2F)c(C)n1 [Example D1, N-[3-chloro-4-[4-[(2S,3S)-3-hydroxy-1,1-dimethyl-pyrrolidin-1-ium-2-carbonyl]piperazine-1-carbonyl]phenyl]-5-[2,3-difluoro-4-[1l-(2-methoxyethyl)-3-methyl-pyrazol-4-yl]phenyl]-1-methyl-imidazole-2-carboxamide; formate]  280 nM
13. COCCn1cc(-c2ccc(-c3cnc(C(=O)Nc4ccc(C(=O)N5CCN(C(=O)[C@H]6C[C@H](O)C[N+]6(C)C)CC5)c(Cl)c4)n3C)c(F)c2F)c(C)n1 [Example D8, N-[3-chloro-4-[4-[(2R,4S)-4-hydroxy-1,1-dimethyl-pyrrolidin-1-ium-2-carbonyl]piperazine-1-carbonyl]phenyl]-5-[2,3-difluoro-4-[1-(2-methoxyethyl)-3-methyl-pyrazol-4-yl]phenyl]-1-methyl-imidazole-2-carboxamide; formate]  300 nM
14. COCCn1cc(-c2ccc(-c3cnc(C(=O)Nc4ccc(C(=O)N5CCN(C(=O)[C@H]6C[C@@H](O)C[N+]6(C)C)CC5)c(Cl)c4)n3C)c(F)c2F)c(C)n1 [Example D9, N-[3-chloro-4-[4-[(2R,4R)-4-hydroxy-1,1-dimethyl-pyrrolidin-1-ium-2-carbonyl]piperazine-1-carbonyl]phenyl]-5-[2,3-difluoro-4-[1-(2-methoxyethyl)-3-methyl-pyrazol-4-yl]phenyl]-1-methyl-imidazole-2-carboxamide; formate]  300 nM
15. COCCn1nc(C)c(-c2ccc(-c3cnc(C(=O)Nc4ccc(C(=O)N5CCN(C(=O)C[N+]6(C)CCC(O)C6)CC5)c(Cl)c4)n3C)c(F)c2F)c1C (stereo not shown) [Example C11, N-[3-chloro-4-[4-[2-(3-hydroxy-1-methyl-pyrrolidin-1-ium-1-yl)acetyl]piperazine-1-carbonyl]phenyl]-5-[2,3-difluoro-4-[1-(2-methoxyethyl)-3,5-dimethyl-pyrazol-4-yl]phenyl]-1-methyl-imidazole-2-carboxamide; formate]  320 nM
16. COCCCn1cc(-c2ccc(-c3cnc(C(=O)Nc4ccc(C(=O)N5CCN(C(=O)[C@@H]6COCC[N+]6(C)C)CC5)c(Cl)c4)n3C)c(F)c2F)c(C)n1 [Example D13, N-[3-chloro-4-[4-[(3S)-4,4-dimethylmorpholin-4-ium-3-carbonyl]piperazine-1-carbonyl]phenyl]-5-[2,3-difluoro-4-[1-(3-methoxypropyl)-3-methyl-pyrazol-4-yl]phenyl]-1-methyl-imidazole-2-carboxamide; formate]  340 nM

Same assay, conditions: Acinetobacter baumannii, ATCC17961, 16 h, read-out: ATCC 17961 IC90

In order of falling IC90:
1. COCCn1cc(-c2ccc(-c3cnc(C(=O)Nc4ccc(C(=O)N5CCN(C(=O)C[N+]6(C)C[C@@H](O)[C@H](O)C6)CC5)c(Cl)c4)n3C)c(F)c2F)c(C)n1 [Example C10, N-[3-chloro-4-[4-[2-[(3R,4R)-3,4-dihydroxy-1-methyl-pyrrolidin-1-ium-1-yl]acetyl]piperazine-1-carbonyl]phenyl]-5-[2,3-difluoro-4-[1-(2-methoxyethyl)-3-methyl-pyrazol-4-yl]phenyl]-1-methyl-imidazole-2-carboxamide; formate]  280 nM
2. COCCn1cc(-c2ccc(-c3cnc(C(=O)Nc4ccc(C(=O)N5CCN(C(=O)C[N+]6(C)CC[C@H](O)C6)CC5)c(Cl)c4)n3C)c(F)c2F)c(C)n1 (stereo partly drawn) [Example C9, N-[3-chloro-4-[4-[2-[(3S)-3-hydroxy-1-methyl-pyrrolidin-1-ium-1-yl]acetyl]piperazine-1-carbonyl]phenyl]-5-[2,3-difluoro-4-[1-(2-methoxyethyl)-3-methyl-pyrazol-4-yl]phenyl]-1-methyl-imidazole-2-carboxamide; formate]  260 nM
3. COCCn1cc(-c2ccc(-c3cnc(C(=O)Nc4ccc(C(=O)N5CCN(C(=O)C[N+]6(C)CC[C@@H](O)C6)CC5)c(Cl)c4)n3C)c(F)c2F)c(C)n1 (stereo partly drawn) [Example C8, N-[3-chloro-4-[4-[2-[(3R)-3-hydroxy-1-methyl-pyrrolidin-1-ium-1-yl]acetyl]piperazine-1-carbonyl]phenyl]-5-[2,3-difluoro-4-[1-(2-methoxyethyl)-3-methyl-pyrazol-4-yl]phenyl]-1-methyl-imidazole-2-carboxamide; formate]  210 nM

— patent US12421211B2, “Heterocyclic compounds” (Hoffmann-La Roche Inc., priority 2021, dated 2025)
